Measured values: US11723890B2, “Methods of treatment using an mTORC1 modulator” (Navitor Pharmaceuticals, Inc., priority 2019, dated 2023)
Marks after values point to notes of the source that are not given here.

What was measured:
cynomolgus monkey [1] = assay: Cardiovascular study in cynomolgus monkeys; format: in vivo
rat = assay: Single oral dose toxicology study in rat; format: in vivo
Procedure: (§1) Nonclinical toxicology studies have been performed with compound A in the rat and cynomolgus monkey. Adverse effects were not observed after single oral doses of up to 500 mg/kg in rat and up to 2000 mg/kg in cynomolgus monkey.

[2] = test system: CSF neurotransmitter metabolites; assay: Example 2: CSF neurotransmitter metabolomics after a single dose; format: in vivo, human; conditions: healthy males; for 1-methyl-4-imidazoleacetate, CSF, ratio relative to baseline / Carboxyethyl-GABA, CSF, ratio relative to baseline / Homovanillate (HVA), CSF, ratio relative to baseline / Hydroxyindoleacetic acid (HIAA), CSF, ratio relative to baseline: single 2400 mg, n = 12
Description: Exploratory Objective(s): The exploratory objectives of this study were as follows using CSF and plasma samples collected over the same time frame as the PK samples: • conducted unbiased metabolomic analysis using validated methods as described: https://www.metabolon.com/what-we-do/our-technology. • conducted unbiased proteomic analysis using validated methods as described: https://www.biognosys.com/technology. Study Endpoints:
This study was a Phase 1, double-blind, placebo-controlled, single-dose study to evaluate the PK, metabolomic, and proteomic profiles of compound A in plasma and CSF in healthy male subjects between the ages of 18 and 55 years. […] Once eligibility criteria were met and the ICF had been signed, subjects were admitted to the CRU on Day-1. On Day 1, intradural and venous catheters were inserted and subjects were randomly assigned to double-blind treatment with a single oral 2400 mg dose of compound A or placebo. The catheter insertion site was assessed on regular basis for early signs of local infection or CSF leakage. Time-matched CSF and blood samples were then collected for 36 hours, after which, the intradural and venous catheters were removed. See FIG. 7 for the study flow chart.
Pharmacokinetic, Metabolomic, and Proteomic Variables: Blood and CSF samples for the PK, metabolomics, and proteomic analysis of compound A were collected at various time points and were processed and analyzed by a validated method for determining concentrations of compound A.
Low CSF concentrations of HVA have been reported to be a marker of depressive symptoms. […] Values represent the ratio of metabolite concentrations for each time point relative to baseline. An increase from baseline is indicated with a single asterisk (*).

mTORC1 = mTORC1 downstream signaling and synaptic changes in medial pre-frontal cortex of rats; format: in vivo, rat; conditions: layer V pyramidal neurons
Description: Compound A [(S)-2-amino-5,5-difluoro-4,4-dimethylpentanoic acid] is a novel, orally bioavailable, specific, small molecule that activates mTORC1 pathway signaling in the brain, including those centers responsible for mood.

healthy volunteers = assay: Example 4: blinded multiple ascending dose safety and tolerability study; format: in vivo, human; conditions: Cohort 1 (800 mg) and Cohort 2 (1600 mg) once daily for 7 days, compound A or placebo (6:2), preliminary
Procedure: Navitor Pharmaceuticals, Inc. (Navitor) is currently conducting a study to assess the safety, tolerability, and PK of multiple ascending doses of compound A (400 mg, 800 mg, 1600 mg, 2400 mg, and potentially 3000 mg) versus matched placebo in healthy volunteers. This study also includes an assessment of CSF and clinical biomarkers, as well as a cognition test.
The study is planned for 4 cohorts and 1 additional optional cohort. Up to approximately 40 healthy volunteers will be randomly assigned to double-blind treatment. In the initial 4 cohorts, eight (8) subjects will be randomized (3:1; compound A:placebo) in each of the four dosage-level cohorts (800 mg, 1600 mg, 2400 mg, and 400 mg) administered as an oral solution. Within each cohort, six subjects will be randomized to receive compound A and two subjects will be randomized to receive placebo. Each subject randomized will receive compound A or placebo once daily for 7 days. Subjects will dose in the morning and will dose each day at the same time. For cohort 3 (2400 mg), each subject will return to the unit after a minimum 5-day washout to receive an additional single dose of compound A or placebo under fed conditions in Period 2. Assessments of safety, tolerability, and PK as well as exploratory biomarker and clinical measures will occur.
Cohort 1 (800 mg) and Cohort 2 (1600 mg) have been completed. […]

cynomolgus monkey [3] = assay: Single oral dose toxicology study in cynomolgus monkey; format: in vivo
Procedure: as §1

CC(C)(C[C@H](N)C(=O)O)C(F)F [Compound A, (S)-2-amino-5,5-difluoro-4,4-dimethylpentanoic acid]
cardiovascular findings at ≥160 mg/kg (cynomolgus monkey [1]; single oral dose ≥160 mg/kg): decreased heart rate and body temperature | cardiovascular finding at higher dosage levels (cynomolgus monkey [1]; single oral dose ≥500 mg/kg): Increased blood pressure | finding after single oral dose (rat; in vivo, po, 2000 mg/kg): ataxia was noted | time by which ataxia resolved (rat; in vivo, po, 2000 mg/kg): ≤ 24 h | single oral dose up to which adverse effects were not observed (rat; single oral dose): up to 500 mg/kg | onset of effect on key neurotransmitter turnover (GABA, histamine, serotonin, dopamine) ([2]; CSF, single oral 2400 mg): within two hours of treatment | duration of effect on key neurotransmitter turnover ([2]; CSF, single oral 2400 mg, post-dose): 36 h | 1-methyl-4-imidazoleacetate, CSF, ratio relative to baseline ([2]; 1 h post-dose): 1.08 | Carboxyethyl-GABA, CSF, ratio relative to baseline ([2]; 1 h post-dose): 1.12 | Homovanillate (HVA), CSF, ratio relative to baseline ([2]; 1 h post-dose): 1.08 | Hydroxyindoleacetic acid (HIAA), CSF, ratio relative to baseline ([2]; 1 h post-dose): 1.09 | 1-methyl-4-imidazoleacetate, CSF, ratio relative to baseline ([2]; 2 h post-dose): 1.35* | Carboxyethyl-GABA, CSF, ratio relative to baseline ([2]; 2 h post-dose): 1.29* | Homovanillate (HVA), CSF, ratio relative to baseline ([2]; 2 h post-dose): 1.41* | Hydroxyindoleacetic acid (HIAA), CSF, ratio relative to baseline ([2]; 2 h post-dose): 1.28* | 1-methyl-4-imidazoleacetate, CSF, ratio relative to baseline ([2]; 4 h post-dose): 1.52* | Carboxyethyl-GABA, CSF, ratio relative to baseline ([2]; 4 h post-dose): 1.38* | Homovanillate (HVA), CSF, ratio relative to baseline ([2]; 4 h post-dose): 1.56* | Hydroxyindoleacetic acid (HIAA), CSF, ratio relative to baseline ([2]; 4 h post-dose): 1.1* | 1-methyl-4-imidazoleacetate, CSF, ratio relative to baseline ([2]; 8 h post-dose): 1.47* | Carboxyethyl-GABA, CSF, ratio relative to baseline ([2]; 8 h post-dose): 1.38* | Homovanillate (HVA), CSF, ratio relative to baseline ([2]; 8 h post-dose): 1.3* | Hydroxyindoleacetic acid (HIAA), CSF, ratio relative to baseline ([2]; 8 h post-dose): 1.22 | 1-methyl-4-imidazoleacetate, CSF, ratio relative to baseline ([2]; 12 h post-dose): 1.56* | Carboxyethyl-GABA, CSF, ratio relative to baseline ([2]; 12 h post-dose): 1.4* | Homovanillate (HVA), CSF, ratio relative to baseline ([2]; 12 h post-dose): 1.46* | Hydroxyindoleacetic acid (HIAA), CSF, ratio relative to baseline ([2]; 12 h post-dose): 1.21 | 1-methyl-4-imidazoleacetate, CSF, ratio relative to baseline ([2]; 24 h post-dose): 1.33* | Carboxyethyl-GABA, CSF, ratio relative to baseline ([2]; 24 h post-dose): 1.24* | Homovanillate (HVA), CSF, ratio relative to baseline ([2]; 24 h post-dose): 1.34* | Hydroxyindoleacetic acid (HIAA), CSF, ratio relative to baseline ([2]; 24 h post-dose): 1.21* | 1-methyl-4-imidazoleacetate, CSF, ratio relative to baseline ([2]; 36 h post-dose): 1.75* | Carboxyethyl-GABA, CSF, ratio relative to baseline ([2]; 36 h post-dose): 1.22* | Homovanillate (HVA), CSF, ratio relative to baseline ([2]; 36 h post-dose): 1.41* | Hydroxyindoleacetic acid (HIAA), CSF, ratio relative to baseline ([2]; 36 h post-dose): 1.28* | mTORC1 downstream signaling, synaptic protein expression, synaptic arborization (mTORC1): increase in mTORC1 downstream signaling, synaptic protein expression (e.g., GluR1 and synapsin), and synaptic arborization | labs, vital signs or ECG (healthy volunteers): No clinically significant abnormalities were observed | severity of AEs (healthy volunteers): mild | single oral dose up to which adverse effects were not observed (cynomolgus monkey [3]): up to 2000 mg/kg
